Some test systems named below: CAKI-1; CCRF-CEM; COLO 205; HCT-15; HL-60; HT-29; IGROV-1; KM12; M14; MDA-MB-231; MDA-N; MOLT-4; Malme-3M; NCI/ADR-RES; RXF 393; SF-268; SF-295; SK-MEL-2; SK-MEL-5; SW-620.
Common to all, as to test: NCI anticancer screen, dose series, 48 h

Structures are written as SMILES.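 Grown in 96-well plates, cells were treated for 48 hours with each compound at five concentrations. Insufficient inhibition: endpoint recorded as highest concentration tested. GI50: concentration for 50% inhibition of growth.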 Active and inactive are the calls of the source. Cut-off read from the data, not from the text of the source: active = GI50 up to about 1.1 µM and inactive = higher. Bounds are passed on as bounds.

As for `CCCCCCCCCC[C@H](O)[C@H](O)CC[C@@H](O)[C@H]1CC[C@@H]([C@H]2CC[C@H](CCCCCCC[C@@H](O)CC3=C[C@H](C)OC3=O)O2)O1`, the GI50 was 2.25 µM (inactive) in the assay with CAKI-1; 2.52 µM (inactive) in the assay on CCRF-CEM; 1.71 µM (inactive) in the assay on COLO 205; 3.87 µM with HCT-15; 1.9 µM (inactive) in the assay on HL-60; 2.2 µM (inactive) with HT-29. Besides, the GI50 in the assay on IGROV-1 is 2.72 µM (inactive); in the assay on KM12, 2.22 µM (inactive); with M14, 3.34 µM (inactive); in the assay on MDA-MB-231 it was 2.31 µM (inactive); with MDA-N, 2.82 µM (inactive); with MOLT-4, 2.26 µM (inactive). Further, the GI50 with Malme-3M was 15.3 µM (inactive); in the assay with NCI/ADR-RES, 1.25 µM (inactive); in the assay with RXF 393, 4.48 µM (inactive); with SF-268, 2.15 µM (inactive); with SF-295 it was 1.22 µM (inactive); in the assay with SK-MEL-2, 1.72 µM (inactive). Further, the GI50 in the assay on SK-MEL-5 was 1.06 µM (active); with SW-620, 2.56 µM (inactive).
For the molecule `CC(/C=C/C(=O)NO)=C\C(C)C(=O)c1ccc(N(C)C)cc1` (configuration not stated), the GI50 with CAKI-1 was 0.029 µM (active); in the assay on CCRF-CEM, < 0.01 µM (active); in the assay with COLO 205, 0.0209 µM (active); in the assay on HCT-15, 0.0313 µM; with HL-60 it was 0.207 µM (active); with HT-29 it was < 0.01 µM (active). The GI50 in the assay with IGROV-1 is 0.0259 µM (active); with KM12, 0.0256 µM (active); in the assay on M14 it was 0.0668 µM (active); in the assay on MDA-MB-231, 0.0184 µM (active); with MDA-N, 0.0287 µM (active); in the assay on MOLT-4 it was < 0.0135 µM (active). Also, the GI50 is < 0.01 µM (active) with Malme-3M; < 0.01 µM (active) in the assay with NCI/ADR-RES; 0.0251 µM (active) with RXF 393; 0.0309 µM (active) with SF-268; 0.0951 µM (active) in the assay on SF-295; 0.217 µM (active) in the assay with SK-MEL-2. For the same molecule, the GI50 with SK-MEL-5 is 0.0313 µM (active); with SW-620 it was < 0.01 µM (active).
`O=C(NC(=O)c1ccccc1[N+](=O)[O-])Nc1ccc(Oc2ncc(Cl)cn2)c([N+](=O)[O-])c1`: the GI50 with CAKI-1 is 0.0456 µM (active); in the assay with CCRF-CEM, 0.126 µM (active); in the assay with COLO 205 it was 0.34 µM (active); with HCT-15, 0.0855 µM; in the assay on HL-60 it was 0.0299 µM (active); in the assay on HT-29, 0.147 µM (active). The GI50 in the assay with IGROV-1 was 0.368 µM (active); in the assay on KM12, 0.0975 µM (active); in the assay with M14, 0.175 µM (active); in the assay with MDA-MB-231, 0.281 µM (active); with MDA-N it was 0.0227 µM (active); with MOLT-4 it was 0.171 µM (active). In addition, the GI50 is 0.061 µM (active) with Malme-3M; 0.305 µM (active) with NCI/ADR-RES; 0.373 µM (active) in the assay with RXF 393; 0.327 µM (active) in the assay with SF-268; 0.157 µM (active) in the assay on SF-295; 0.127 µM (active) in the assay with SK-MEL-2. Moreover, the figures for the GI50 with SK-MEL-5 and in the assay on SW-620 were 0.0773 µM (active) and 0.106 µM (active), respectively.
On to `Nc1nc(Cl)cc(NCC2(O)CCC2)n1`, for which the GI50 was > 100 µM (inactive) in the assay on CAKI-1; > 10 µM (inactive) in the assay with CCRF-CEM; > 100 µM (inactive) with COLO 205; more than 100 µM with HCT-15; > 100 µM (inactive) with HL-60; > 100 µM (inactive) in the assay on HT-29. Moreover, the GI50 with IGROV-1, in the assay with KM12, in the assay on MDA-MB-231, in the assay on MDA-N, in the assay on MOLT-4 and with Malme-3M was > 100 µM (inactive) each time. Besides, the GI50 with NCI/ADR-RES, in the assay with RXF 393, with SF-268, in the assay on SF-295, in the assay on SK-MEL-2 and in the assay with SK-MEL-5 was > 100 µM (inactive) each time. For the same molecule, the GI50 with SW-620 was > 100 µM (inactive).
`COc1ccc(\N=C/C=C/C(=C/COC(C)=O)OC(C)=O)cc1`: the GI50 in the assay on CAKI-1 is 23.6 µM (inactive); with CCRF-CEM, 4.56 µM (inactive); in the assay with COLO 205, 25.4 µM (inactive); in the assay with HCT-15, 36.6 µM; in the assay with HL-60, 19.1 µM (inactive); with HT-29 it was 23.2 µM (inactive). Moreover, the GI50 with IGROV-1 was 21.1 µM (inactive); with KM12, 28.6 µM (inactive); in the assay with M14 it was 32.7 µM (inactive); with MDA-MB-231, 19.6 µM (inactive); in the assay with MDA-N, 9.38 µM (inactive); in the assay on MOLT-4, 68.1 µM (inactive). In addition, the GI50 in the assay with Malme-3M was 31.2 µM (inactive); with NCI/ADR-RES, 39.3 µM (inactive); with RXF 393, 21.4 µM (inactive); in the assay on SF-268, 31 µM (inactive); with SF-295, 58.5 µM (inactive); with SK-MEL-2 it was 16.7 µM (inactive). Further, the figures for the GI50 in the assay on SK-MEL-5 and in the assay with SW-620 were 29 µM (inactive) and 10.2 µM (inactive), respectively.
As to `C[C@]12CC(c3ccccc3O1)C(C#N)C(=O)N2` (some centres not stated), the GI50 with CAKI-1 was > 100 µM (inactive); in the assay on CCRF-CEM, > 100 µM (inactive); in the assay on COLO 205, > 100 µM (inactive); in the assay with HCT-15, more than 100 µM; in the assay with HL-60, > 100 µM (inactive); in the assay with HT-29, > 100 µM (inactive). Further, the GI50 in the assay on IGROV-1, in the assay with KM12, in the assay on M14, with MDA-MB-231, in the assay with MDA-N and with MOLT-4 was > 100 µM (inactive) in each case. Besides, the GI50 in the assay on Malme-3M, in the assay on NCI/ADR-RES, in the assay with RXF 393, in the assay on SF-268, with SK-MEL-2 and with SK-MEL-5 was > 100 µM (inactive) throughout. Further, the GI50 in the assay on SW-620 is > 100 µM (inactive).
With `NNC(=O)CC(=O)Nc1ccc(Cl)cc1`, the GI50 is > 100 µM (inactive) in the assay with CAKI-1; > 100 µM (inactive) in the assay on CCRF-CEM; > 100 µM (inactive) in the assay with COLO 205; 34.7 µM in the assay on HCT-15; > 100 µM (inactive) in the assay on HL-60; > 100 µM (inactive) with HT-29. Besides, the GI50 in the assay on IGROV-1, with KM12, in the assay on MDA-MB-231, in the assay on MDA-N, with MOLT-4 and in the assay on Malme-3M was > 100 µM (inactive) throughout. The GI50 with NCI/ADR-RES, in the assay with RXF 393, in the assay on SF-268, in the assay with SF-295, with SK-MEL-2 and in the assay on SK-MEL-5 was > 100 µM (inactive) in each case. Besides, the GI50 with SW-620 was > 100 µM (inactive).

Source of the values: ChEMBL document CHEMBL1201862, “PubChem BioAssay data set” (2004).
